{
  "source": "patent US20240358692A1",
  "about": "“TREATMENT OF SCLERODERMA” (Aisa Pharma, Inc., priority 2023, published 2024)",
  "tested_on": "participants with SSc-RP",
  "assay": "Average severity of weekly RP attacks (VAS 0-10)",
  "format": "in vivo, human",
  "settings": "Tadalafil 5 mg; for Average Severity of Weekly Symptomatic RP Attacks, Change from Baseline, Mean / Average Severity of Weekly Symptomatic RP Attacks, Change from Baseline, Median / Average Severity of Weekly Symptomatic RP Attacks, Percent Change from Baseline, Mean / Average Severity of Weekly Symptomatic RP Attacks, Percent Change from Baseline, Median: 2nd Baseline RCS subgroup, ITT Part A, last 7 days of dosing period",
  "from_the_text": "The absolute change in average severity of weekly RP attacks (VAS 0-10 cm scale) from baseline to the end of each Dosing Period was and will be a secondary outcome variable. The sponsor-developed participant-informed diary will be used to record data. Average severity of weekly RP attacks is defined as the total severity scores of RP attacks divided by total number of RP attacks within the last 7 days of each dosing period. Total severity scores of RP attacks during the last 7 days of screening period divided by the total number of RP attacks will be used as baseline for the analysis of all periods. The variable will be calculated similar to frequency data as before.",
  "key": {"[1]": {"settings": "all attacks, by Baseline RCS: second subgroup of Table C-7, ITT Part A"}},
  "data": [
    {"compound": "CN1CC(=O)N2[C@H](c3ccc4c(c3)OCO4)c3[nH]c4ccccc4c3C[C@@H]2C1=O", "note": "[Tadalafil]", "values": [
      {"measurement": "Average Severity of Weekly Symptomatic RP Attacks, Change from Baseline, Mean", "value": "−0.60"},
      {"measurement": "Average Severity of Weekly Symptomatic RP Attacks, Change from Baseline, Median", "value": "−0.60"},
      {"measurement": "Average Severity of Weekly Symptomatic RP Attacks, Percent Change from Baseline, Mean", "value": "−10.43", "unit": "%"},
      {"measurement": "Average Severity of Weekly Symptomatic RP Attacks, Percent Change from Baseline, Median", "value": "−10.43", "unit": "%"},
      {"measurement": "Average Severity of Weekly Symptomatic RP Attacks, Change from Baseline, Mean", "setting": "Excluding Outliers", "value": "−1.32"},
      {"measurement": "Average Severity of Weekly Symptomatic RP Attacks, Change from Baseline, Median", "setting": "Excluding Outliers", "value": "−1.32"},
      {"measurement": "Average Severity of Weekly Symptomatic RP Attacks, Percent Change from Baseline, Mean", "setting": "Excluding Outliers", "value": "−22.01", "unit": "%"},
      {"measurement": "Average Severity of Weekly Symptomatic RP Attacks, Percent Change from Baseline, Median", "setting": "Excluding Outliers", "value": "−22.01", "unit": "%"},
      {"measurement": "Average Severity (0-10) of weekly RP attacks, Mean", "setting": "[1]", "value": 7.02},
      {"measurement": "Average Severity (0-10) of weekly RP attacks, Median", "setting": "[1]", "value": 7.02},
      {"measurement": "Average severity of weekly RP attacks, Change from Baseline, Mean", "setting": "[1]", "value": "−0.47"},
      {"measurement": "Average severity of weekly RP attacks, Change from Baseline, Median", "setting": "[1]", "value": "−0.47"},
      {"measurement": "Average severity of weekly RP attacks, Percent Change from Baseline, Mean", "setting": "[1]", "value": "−8.97", "unit": "%"},
      {"measurement": "Average severity of weekly RP attacks, Percent Change from Baseline, Median", "setting": "[1]", "value": "−8.97", "unit": "%"}
    ]}
  ]
}
